Measurements as given in ChEMBL document CHEMBL5724796, “Tm Shift (DSF) assay results for EUbOPEN Chemogenomics Library” (2024).
Where “and” joins values, the source holds several entries; their conditions need not be identical. Equal values may be shown once. Residues, ends and D or L forms follow the SMILES beside them.

How the values were obtained:
[1] = biological target: T1, Peregrin (Homo sapiens) (UniProt P55201); conditions: Compound concentration 20.0 uM
T1 sequence (whole entry): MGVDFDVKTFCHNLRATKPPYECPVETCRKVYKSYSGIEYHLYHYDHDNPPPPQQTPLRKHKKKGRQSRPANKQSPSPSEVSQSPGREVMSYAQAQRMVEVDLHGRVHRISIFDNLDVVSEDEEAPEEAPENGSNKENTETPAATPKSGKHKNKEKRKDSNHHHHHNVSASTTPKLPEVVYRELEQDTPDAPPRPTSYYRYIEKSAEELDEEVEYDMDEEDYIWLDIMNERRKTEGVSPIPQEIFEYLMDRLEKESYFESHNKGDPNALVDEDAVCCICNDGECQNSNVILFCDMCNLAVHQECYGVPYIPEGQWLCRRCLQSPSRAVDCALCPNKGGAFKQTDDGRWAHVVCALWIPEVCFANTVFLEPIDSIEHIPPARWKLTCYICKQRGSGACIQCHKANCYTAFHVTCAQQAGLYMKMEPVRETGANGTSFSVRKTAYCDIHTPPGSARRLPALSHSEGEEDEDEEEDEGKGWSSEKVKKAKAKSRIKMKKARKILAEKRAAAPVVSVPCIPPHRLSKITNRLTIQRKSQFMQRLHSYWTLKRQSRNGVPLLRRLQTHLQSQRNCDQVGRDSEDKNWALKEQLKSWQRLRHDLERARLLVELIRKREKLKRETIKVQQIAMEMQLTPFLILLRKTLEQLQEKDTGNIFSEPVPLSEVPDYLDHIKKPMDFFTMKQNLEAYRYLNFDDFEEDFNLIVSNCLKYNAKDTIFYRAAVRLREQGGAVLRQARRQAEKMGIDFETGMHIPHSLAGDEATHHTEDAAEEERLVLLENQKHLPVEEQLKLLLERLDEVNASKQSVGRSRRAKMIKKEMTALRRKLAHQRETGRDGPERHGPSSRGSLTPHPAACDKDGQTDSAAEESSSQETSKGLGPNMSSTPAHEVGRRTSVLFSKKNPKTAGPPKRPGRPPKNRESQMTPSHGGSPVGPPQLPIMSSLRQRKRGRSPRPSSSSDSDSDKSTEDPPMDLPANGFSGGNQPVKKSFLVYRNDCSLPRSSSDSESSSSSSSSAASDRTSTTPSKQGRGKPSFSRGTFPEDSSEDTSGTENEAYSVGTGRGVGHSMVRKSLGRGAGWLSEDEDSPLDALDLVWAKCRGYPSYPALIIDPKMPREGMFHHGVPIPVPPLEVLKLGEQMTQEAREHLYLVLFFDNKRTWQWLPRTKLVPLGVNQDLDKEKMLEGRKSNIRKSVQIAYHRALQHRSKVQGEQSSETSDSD

[2] = biological target: Fibroblast growth factor receptor 2 (Homo sapiens) (UniProt P21802); conditions: Compound concentration 20.0 uM
Fibroblast growth factor receptor 2 (Homo sapiens), sequence (P21802 22-821 limits assumed): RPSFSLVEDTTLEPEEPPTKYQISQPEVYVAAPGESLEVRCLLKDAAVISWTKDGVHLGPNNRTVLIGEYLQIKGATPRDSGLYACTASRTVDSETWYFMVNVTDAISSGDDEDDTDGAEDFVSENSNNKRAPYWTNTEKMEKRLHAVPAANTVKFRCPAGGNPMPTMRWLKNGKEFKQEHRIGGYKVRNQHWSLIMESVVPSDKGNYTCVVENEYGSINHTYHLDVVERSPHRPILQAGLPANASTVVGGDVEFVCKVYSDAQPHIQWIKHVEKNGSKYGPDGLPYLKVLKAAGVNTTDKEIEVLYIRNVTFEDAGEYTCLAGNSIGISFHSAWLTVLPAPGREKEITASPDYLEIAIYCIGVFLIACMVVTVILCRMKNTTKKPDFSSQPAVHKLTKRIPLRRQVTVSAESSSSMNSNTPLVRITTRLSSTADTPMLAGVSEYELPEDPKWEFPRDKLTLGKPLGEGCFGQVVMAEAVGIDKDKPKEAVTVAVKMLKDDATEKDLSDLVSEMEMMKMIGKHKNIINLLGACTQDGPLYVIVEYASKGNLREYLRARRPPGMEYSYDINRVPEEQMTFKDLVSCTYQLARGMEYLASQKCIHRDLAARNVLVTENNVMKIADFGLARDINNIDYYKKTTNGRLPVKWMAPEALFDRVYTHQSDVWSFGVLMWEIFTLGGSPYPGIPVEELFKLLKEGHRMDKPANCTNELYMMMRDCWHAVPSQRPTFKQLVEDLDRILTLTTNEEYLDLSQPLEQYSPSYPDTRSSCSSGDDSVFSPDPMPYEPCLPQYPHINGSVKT

| Structure (SMILES) | ΔTm [1] | ΔTm [2] |
| --- | --- | --- |
| Cc1cc(Cn2c(=O)n(Cc3cnc(C)s3)c(=O)c3cc(S(=O)(=O)NC4(C)CC4)ccc32)n(C)n1 | -1.12 °C | 0.47 °C |
| Cc1nc(N)c2nnn(C[C@H]3CN(Cc4nccs4)CCO3)c2n1 | 0.82 °C | -0.39 °C |
| Cc1cc(OCc2nnc(SC3CCCC3)n2-c2cccnc2)ccc1-c1ccc(S(C)(=O)=O)cc1 | -5.44 °C | -3.4 °C |
| O=C(NCc1ccc(F)cc1)C1CCN(S(=O)(=O)c2cc(Cl)cc(Cl)c2)CC1 | 2.64 °C | 0.75 °C |
| Cn1ncnc1[C@H]1C2=c3c(cc(F)cc3=N[C@@H]1c1ccc(F)cc1)C(=O)NN2 | 3.07 °C | 0.09 °C |
| COc1cc2c(cc1-c1c(C)noc1C)[nH]c1nc(C)nc(Nc3cc(C4CC4)nn3C)c12 | 1.07 °C | -0.94 °C |
| CC(C)(Sc1ccncc1-c1ccc(C#N)c2ccccc12)C(=O)O | 0.05 °C | 0.42 °C |
| Cc1cc(C)c(-c2[nH]nc(C)c2C)cc1C(=O)N1CC(c2ccc(C#N)cc2)C1 | -1.03 °C | -0.22 °C |
| CCCCCCCCCCCCC/C=C/[C@@H](O)[C@H](CO)NC(=O)CBr | -2.74 °C | -18.9 °C |
| COc1ccc(OC)c(-c2nnc3n2N=C(c2ccc(OC)c(OC)c2)CS3)c1 | 0.8 °C | 0.4 °C |
| COCc1nc(C(F)(F)F)[nH]c1-c1cc(C(=O)N2CC(c3ccc(C#N)cc3)C2)c(C)cc1C | 1.19 °C | 0.03 °C |
| CC(=O)N1CCC(c2ccc(C(=O)NC(=N)N)cc2C(F)(F)F)CC1 | 1.3 °C | 0.33 °C |
| CC(C)(C)NS(=O)(=O)c1ccc(NC(=O)[C@H](Cc2ccccc2)NC(=O)c2ccc(F)cc2)cc1 | 0.73 °C | 0.56 °C |
| CCOCC1(COCC)CCC(c2n[nH]cc2CN(C)CCNC)CC1 | -0.75 °C | -0.35 °C |
| N#C[C@@H]1C[C@@H]2C[C@@H]2N1C(=O)[C@@H](N)C12CC3CC(CC(O)(C3)C1)C2 | -0.63 °C | 0.29 °C |
| CCn1nc(C2CC2)cc1Nc1nc(C(=O)NC)nc2[nH]c3cc(-c4c(C)noc4C)c(OC)cc3c12 | 0.68 °C | -0.1 °C |
| Cc1noc2c1-c1ccccc1C(c1ccc(Cl)cc1)=N[C@H]2CC(N)=O | 2.09 °C | -0.03 °C |
| CC(C)[C@H](NC(=O)OCc1ccccc1)C(=O)NC(CC(=O)O)C(=O)CF (some centres undefined) | -1.71 °C | 0.74 °C |
| C[C@]12O[C@H](C[C@]1(O)CO)n1c3ccccc3c3c4c(c5c6ccccc6n2c5c31)CNC4=O | -0.7 °C | 5.19 °C |
| O=C(C1CC1)N1CC[C@@H](Cc2n[nH]c(=O)n2-c2ccc(-c3ccc4occc4c3)cc2)C1 | -1.32 °C and 0.92 °C | 0.63 °C and -0.68 °C |
| COc1ccc(N2CCN(C(=O)c3cc4c(s3)-c3ccccc3S(=O)(=O)C4)CC2)cc1 | 0 °C | 0.24 °C |

| Structure (SMILES) | ΔTm [1] | ΔTm [2] |
| --- | --- | --- |
| CC(C)c1c(-c2cnn(C(C)(C)C)c2)[nH]c2c(C#N)cnn2c1=O | 0.8 °C | 0.36 °C |
| COc1cc2c(NC3CCN(C)CC3)nc(N3CCCN(C)CC3)nc2cc1OCCCN(C)C | -1.21 °C | 0.15 °C |
| O=C(O)C1CCCN(CCC=C(c2ccccc2)c2ccccc2)C1 (centres undefined) | 0.59 °C | 0.41 °C |
| CS(=O)(=O)c1ccc(-c2cnc(NCc3ccco3)n3cnnc23)cc1 | -1.15 °C | 0.54 °C |
| CC(=O)N[C@@H](Cc1ccc(O)cc1)C(=O)N[C@H](C(=O)N[C@@H](C)C(=O)N[C@@H](CC(=O)O)C(=O)COC(=O)c1c(C)cccc1C)C(C)C | -1.58 °C | 0.82 °C |
| COc1ccccc1S(=O)(=O)Nc1ccc2c(c1)CN(C)C(=O)N2 | 1.9 °C | -0.59 °C |
| N#C[C@@H]1CCCN1C(=O)CNC(=O)c1ccnc2ccc(OCCCN3CCN(C(=O)CN4CCN(CC(=O)O)CCN(CC(=O)O)CCN(CC(=O)O)CC4)CC3)cc12 | 1.8 °C | 0.18 °C |
| CC(c1cccc2ccccc12)n1cnc2c(=O)[nH]c(Cc3ccccc3)nc21 (centres undefined) | -0.65 °C | -1.64 °C |
| NS(=O)(=O)OC[C@H]1C[C@@H](Nc2ncncc2C(=O)c2ccn(Cc3cccc(Br)c3)n2)C[C@@H]1O | 1.11 °C | -0.38 °C |
| CN(C)NC(=O)CCC(=O)O | 0.25 °C | 0.18 °C |
| O=C(Cc1ccccc1)c1cc(O)c(O)c([N+](=O)[O-])c1 | 0.33 °C | 0.57 °C |
| COc1ccc(-c2ccc3c(c2)COC3=O)n2nc(C3(C(=O)OCC(C)C)CC3)nc12 | 0.76 °C | 0.71 °C |
| Nc1ncnc2c1nc(NCc1ccc(-c3ccccc3)cc1)n2[C@@H]1O[C@H](CO)[C@@H](O)[C@H]1O | 0.29 °C | 0.12 °C |
| C[C@@H]1OC(=O)NN=C1c1ccc(-c2ccc(F)cc2)c(C(F)(F)F)c1 | 0.4 °C | -0.74 °C |
| C[C@]12CC[C@@H]3c4ccc(O)cc4C[C@@H](CCCCCCCCC[S+]([O-])CCCC(F)(F)C(F)(F)F)[C@H]3[C@@H]1CC[C@@H]2O (some centres undefined) | 0 °C | -3.24 °C |
| CCOC(=O)c1ccc(-c2ccc(OC(=O)N(C)Cc3cccc(-c4ccncc4)c3)cc2)cc1 | 3.12 °C | -0.28 °C |
| Cc1nc(F)ccc1-c1cc(Cn2ccn(C)c2=N)cc(C(=O)NCc2ccc(Cl)c(Cl)c2)c1 | -1.3 °C | 0.16 °C |
| CNCc1ccc(-c2cc3cc(F)cc(C(N)=O)c3o2)cc1 | 1.32 °C | 0.56 °C |
| Cc1ccsc1C(=CCCN1CCC[C@@H](C(=O)O)C1)c1sccc1C | 0.44 °C | 0.37 °C |
| Cc1cc(/N=N/c2ccc(S(=O)(=O)Nc3ccccn3)cc2)c(N)cc1O | 5.09 °C | 0.17 °C |
| C(=C\c1ccccc1)/CN1CCN(CCOC(c2ccccc2)c2ccccc2)CC1 | 0.95 °C | -0.04 °C |

| Structure (SMILES) | ΔTm [1] | ΔTm [2] |
| --- | --- | --- |
| C[C@@H]1CCC[C@H](C)N1NC(=O)c1ccc(Cl)c(S(N)(=O)=O)c1 | 0.5 °C | -0.13 °C |
| N#Cc1cccnc1N1CCN(C(=O)c2cccc(Cc3n[nH]c(=O)c4ccccc34)c2)CC1 | 1.88 °C | -0.1 °C |
| C/C=C1\NC(=O)[C@H]2CSSCC/C=C/[C@H](CC(=O)N[C@H](C(C)C)C(=O)N2)OC(=O)[C@H](C(C)C)NC1=O | 0 °C | 0.1 °C |
| CC(C)[C@@H]1C(=O)N(S(C)(=O)=O)[C@@H]2CCN(C(=O)/C=C/CN3CCCCC3)[C@H]21 | -1.67 °C | 0.49 °C |
| C[C@H](Nc1nc2c(cnn2C2CCCC2)c(=O)[nH]1)c1ccc(Cl)cc1 | 1.99 °C | 0.2 °C |
| CSCC[C@H](NC(=O)[C@H](CC(=O)O)NC(C)=O)C(=O)N[C@@H](CCC(N)=O)C(=O)N[C@H](C=O)CC(=O)O (Ac-DMQD-aldehyde) | -1.78 °C | 0.77 °C |
| COc1ccc(C(=O)N[C@H](C(=O)N2CCC[C@H]2C(=O)N[C@H](C(=O)C(F)(F)F)C(C)C)C(C)C)cc1 | 0.8 °C | 0.07 °C |
| Nc1ncnc2c1ncn2[C@@H]1O[C@H](C[C@@H](N)CC[C@H](N)C(=O)O)[C@@H](O)[C@H]1O | -1.27 °C | -1.33 °C |
| NC(=O)c1cccc(NC(=O)CCC(=O)NCCc2cn(CCNS(=O)(=O)c3cccc(C(=O)O)c3)nn2)c1 | -1.38 °C | -1.91 °C |
| O=C(NCC(=O)N1CCCCC1)Nc1ccc2nnsc2c1 | -1.05 °C | 0.59 °C |
| Cc1c(F)c(N)cc(C(=O)Nc2cc(-n3cc(C(=O)NCCCN4CCOCC4)nn3)ccc2N2CCN(C)CC2)c1Cl | -0.29 °C | 0.03 °C |
| CCC[C@H]1CNCc2c1[nH]c(=O)c(C#N)c2N1CCC2(CC1)CC2 | -0.83 °C | 0.92 °C |
| CCOc1ccc(S(=O)(=O)Nc2ccc(Cl)cc2C#Cc2cnc(C(=O)O)cc2OC)c2ncccc12 | 0 °C | 0.19 °C |
| CCN(CCN(C)C)C(=O)CNCc1cc(C(N)=O)ccn1 | -1.31 °C | 0.97 °C |
| N#Cc1c(N)[nH]c2cc(/C=C/c3cccc(F)c3)ccc12 | 6.38 °C | 1.59 °C |
| Cc1cc(N2C[C@@H](C)N[C@@H](C)C2)ncc1-c1ccc(-c2nc3c(ccn3C)c(=O)[nH]2)cc1 | 2.61 °C | 0.8 °C |
| O=c1[nH][nH]c(=O)c2cc(OCc3ccsc3)ccc12 | 3.18 °C | 0.19 °C |
| CC(C)(C)c1ccc(S(=O)(=O)NCc2ccc(C(=O)Nc3cccnc3)cc2)cc1 | -0.61 °C | -0.54 °C |
| CC(C)c1ccc(-c2cc(=O)c3ccccc3o2)cc1 | -0.32 °C | -0.13 °C |
| O=C1Nc2ccccc2C2(CCN(CC(Cc3ccccc3)Nc3nc4ccc(F)cc4s3)CC2)N1 (centres undefined) | 0.27 °C | 2.21 °C |
